Results as given in patent US9963488B2, “Variants of the lantibiotic MU1140 and other lantibiotics with improved pharmacological properties and structural features” (priority 2012, dated 2018).

Assays:
[1] = tested on: Gram-negative bacteria or yeast; conditions: cited from earlier work
[2] = tested on: multi-drug resistant strains of S. aureus; conditions: cited from earlier work
[3] = cited from earlier work
S. pneumonia = conditions: cited from earlier work
Staphylococcus aureus = conditions: pilot study; 60 times the LD50 of Staphylococcus aureus administered; cited from earlier work
[4] = murine models, cited from earlier work
[5] = tested on: Clostridium difficile UK1; assay: Minimum inhibitory concentration; type: cell-based; conditions: THyex medium; anaerobic chamber at 37° C.; peptide about 90% purity
Procedure: (§1) Wild-type mutacin 1140, mutacin 1140 with a F1I mutation, mutacin 1140 with a W4A mutation, and mutacin 1140 with a R13D mutation was purified to about 90% purity (measured via HPLC). The minimum inhibitory concentration (MIC) of MU1140 and variants of MU1140 was determined against several bacteria. The MIC is the lowest concentration of MU1140 that will inhibit the visible growth of a microorganism after 24 hour incubation. A lower MIC is an indication of greater inhibitory activity. Preparation of the antimicrobial agent and bacterial inoculum for minimum inhibitory concentrations (MICs) was performed by following the method described in Clinical Laboratory Standard Institute (CLSI) M07-8A with some minor modifications. Streptococcus mutans UA159 was tested overnight in a shaking incubator to maintain uniform dispersion of the bacteria. Clostridium difficile UK1 was tested in an anaerobic chamber at 37° C. The medium used was THyex.

[6] = tested on: Streptococcus mutans UA159; assay: Minimum inhibitory concentration; type: cell-based; conditions: THyex medium; overnight in shaking incubator; peptide about 90% purity
Procedure: as §1

[7] = tested on: Staphylococcus aureus FA1; assay: Minimum inhibitory concentration; type: cell-based; conditions: THyex medium; 24 hour incubation; peptide about 90% purity
Procedure: as §1

[8] = tested on: Streptococcus pneumonia FA1; assay: Minimum inhibitory concentration; type: cell-based; conditions: THyex medium; 24 hour incubation; peptide about 90% purity
Procedure: as §1

[9] = tested on: Micrococcus luteus ATCC10240; assay: Minimum inhibitory concentration; type: cell-based; conditions: THyex medium; 24 hour incubation; peptide about 90% purity
Procedure: as §1

[10] = tested on: S. aureus or Streptococcus pneumoniae; conditions: repeated subculture in medium with sub-lethal concentrations; cited from earlier work
[11] = tested on: vancomycin-resistant Enterococcus faecium (VREF); conditions: cited from earlier work
[12] = tested on: all Gram positive bacteria against which it was tested; conditions: cited from earlier work

Mu1140 Wild-type: wild-type lantibiotic MU1140 (SEQ ID NO:17) produced by Streptococcus mutans strain JH1140 (FKAWXLAXPGAARXGAFNAYA; not fully specified; lantibiotic post-translational modifications; DISULFID (3)..(7); (5)..(5) X is Dha amino acid; DISULFID (8)..(11); MOD_RES (8)..(8) Abu; (14)..(14) X is Dhb amino acid; DISULFID (16)..(21); (19)..(21) lanthionine bridge)
activity [1]: no activity
mode of antibacterial action [2]: bactericidal
cytotoxicity in vitro [3]: low cytotoxicity
mode of antibacterial action (S. pneumonia): bactericidal
efficacy (Staphylococcus aureus): efficacy was achieved
toxicity ([4]; intravenous route): low toxicity
distribution [4]: distributed into all body compartments
MIC Clostridium difficile UK1 [5]: 16
MIC Streptococcus mutans UA159 [6]: 2
MIC Staphylococcus aureus FA1 [7]: 16
MIC Streptococcus pneumonia FA1 [8]: 0.5
MIC Micrococcus luteus ATCC10240 [9]: 0.0625
development of significant resistance [10]: not observed
mode of antibacterial action [11]: bacteriostatic
minimum inhibitory concentration (MIC) [12]: submicromolar
